Our source for the IC50 values is US20250250299A1, “MACROCYCLIC IMMUNOMODULATORS” (Bristol-Myers Squibb Company, priority 2022, published 2025).

SMILES strings stand for the structures. pIC50: −log10 of the molar value. Where a SMILES comes first, the peptide text is derived from it. Bridges are numbered along the chain shown (N, C = ends). [ ]: non-standard residue; d: D form. The star is where a group is joined. X1 = O=C(O)CCCCCCCCCCCCCCCCC(=O)N[C@@H](CCC(=O)NCCOCCOCCOCCOCCOCCOCCOCCOCCOCCOCCOCCn1cc(C*)nn1)C(=O)O; Phe(4-CH2NH2) = NCc1ccc(C[C@H](N)C(=O)O)cc1; Bip = N[C@@H](Cc1ccc(-c2ccccc2)cc1)C(=O)O; Phe(3-Me) = Cc1cccc(C[C@H](N)C(=O)O)c1; C12 diacid = O=C(O)CCCCCCCCCCC(=O)*; 4Pal = N[C@@H](Cc1ccncc1)C(=O)O; Cha = N[C@@H](CC1CCCCC1)C(=O)O; Carboxymethyl = O=C(O)C*; NMeA = CN[C@@H](C)C(=O)O; Orn = NCCC[C@H](N)C(=O)O; Dab = NCC[C@H](N)C(=O)O; Dap = NC[C@H](N)C(=O)O; AEEA = NCCOCCOCC(=O)O

T1 sequence (Q15116 25-288): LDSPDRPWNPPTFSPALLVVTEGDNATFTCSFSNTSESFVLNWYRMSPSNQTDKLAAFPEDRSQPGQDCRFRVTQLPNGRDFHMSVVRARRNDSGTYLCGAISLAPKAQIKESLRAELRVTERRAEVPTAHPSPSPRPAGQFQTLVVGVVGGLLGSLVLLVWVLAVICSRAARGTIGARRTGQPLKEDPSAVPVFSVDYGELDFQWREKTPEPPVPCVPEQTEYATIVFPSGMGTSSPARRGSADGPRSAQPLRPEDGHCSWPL

The assay concerns the target T1, human PD-1 (Jurkat-PD-1 cells; binding of PE-labeled human PD-L1-Ig) (Homo sapiens, UniProt Q15116).
T1 construct: expressed in transfected cells; host or cells: Jurkat (Jurkat-PD-1 / Jurkat-hPD-1)
As to the kind of experiment: Jurkat-PD-1 Cell Binding High-Content Screening Assay. The note with it: Jurkat cell line over-expressing human PD-1; compound 2 h at 37° C., then PE-labeled PD-L1-Ig 20 nM final, 1 hour; read-out: Jurkat hPD1 PDL1 IC50.
The pIC50 is −log10 of the IC50, conventionally taken in molar units. In the case of `CC(C)C[C@H]1NC(=O)[C@H](C)N(C)C(=O)[C@H](C(C)C)NC(=O)[C@H](Cc2ccc(-c3ccccc3)cc2)NC(=O)[C@H](C(C)C)NC(=O)[C@H](Cc2c[nH]c3ccccc23)NC(=O)[C@H](CC(=O)O)NC(=O)[C@H](Cc2ccc(CNC(=O)CCCCCCCCCCC(=O)O)cc2)NC(=O)[C@H](Cc2ccc(OCC(=O)O)cc2)NC(=O)CSC[C@@H](C(N)=O)NC(=O)[C@H](CO)NC(=O)[C@H](C(C)C)NC(=O)[C@H](CC2CCCCC2)NC(=O)[C@H](CC(N)=O)NC1=O` [Compound 1038] ({CH2CO}-Y(Carboxymethyl)[Phe(4-CH2NH2)](C12 diacid)DWV[Bip]V[NMeA][dL]N[Cha]VSC-NH2; thioether N-14), the pIC50 was 6.74.

As to `CC(C)C[C@H]1NC(=O)[C@H](C)N(C)C(=O)[C@H](CCCCNC(=O)CCCCCCCCCCC(=O)O)NC(=O)[C@H](Cc2ccc(-c3ccccc3)cc2)NC(=O)[C@H](C(C)C)NC(=O)[C@H](Cc2c[nH]c3ccccc23)NC(=O)[C@H](CC(=O)O)NC(=O)[C@H](Cc2ccncc2)NC(=O)[C@H](Cc2ccc(OCC(=O)O)cc2)NC(=O)CSC[C@@H](C(N)=O)NC(=O)[C@H](CO)NC(=O)[C@H](C(C)C)NC(=O)[C@H](CC2CCCCC2)NC(=O)[C@H](CC(N)=O)NC1=O` [Compound 1039] ({CH2CO}-Y(Carboxymethyl)[4Pal]DWV[Bip]K(C12 diacid)[NMeA][dL]N[Cha]VSC-NH2; thioether N-14), the negative-log IC50 (pIC50) was 6.06.

Turning to `Cc1cccc(C[C@@H]2NC(=O)[C@H](CC(=O)O)NC(=O)[C@H](Cc3ccc(OCC(=O)O)cc3)NC(=O)[C@H](CN)NC(=O)CSC[C@@H](C(=O)N[C@@H](CCN)C(=O)NCCOCCOCC(N)=O)NC(=O)[C@H]([C@@H](C)O)NC(=O)[C@H](C(C)C)NC(=O)[C@H](CC3CCCCC3)NC(=O)[C@H](CCN)NC(=O)[C@@H](CC(C)C)NC(=O)[C@H](CCCN)NC(=O)[C@H](Cc3ccc(OCC(=O)O)cc3)NC(=O)[C@H](Cc3ccc(-c4ccccc4)cc3)NC(=O)[C@H](COCc3cn(CCOCCOCCOCCOCCOCCOCCOCCOCCOCCOCCOCCNC(=O)CC[C@H](NC(=O)CCCCCCCCCCCCCCCCC(=O)O)C(=O)O)nn3)NC2=O)c1` [Compound 1040] ({CH2CO}-[Dap]Y(Carboxymethyl)D[Phe(3-Me)]S(X1)[Bip]Y(Carboxymethyl)[Orn][dL][Dab][Cha]VTC[Dab][AEEA]-NH2; thioether N-14), the negative-log IC50 (pIC50) is 6.60.

For `Cc1cccc(C[C@@H]2NC(=O)[C@H](CC(=O)O)NC(=O)[C@H](Cc3ccc(OCC(=O)O)cc3)NC(=O)[C@H](CN)NC(=O)CSC[C@@H](C(=O)N[C@@H](CCN)C(=O)NCCOCCOCC(N)=O)NC(=O)[C@H](COCc3cn(CCOCCOCCOCCOCCOCCOCCOCCOCCOCCOCCOCCNC(=O)CC[C@H](NC(=O)CCCCCCCCCCCCCCCCC(=O)O)C(=O)O)nn3)NC(=O)[C@H](C(C)C)NC(=O)[C@H](CC3CCCCC3)NC(=O)[C@H](CCN)NC(=O)[C@@H](CC(C)C)NC(=O)[C@H](CCCN)NC(=O)[C@H](Cc3ccc(OCC(=O)O)cc3)NC(=O)[C@H](Cc3ccc(-c4ccccc4)cc3)NC(=O)[C@H](Cc3ccc(OCC(=O)O)cc3)NC2=O)c1` [Compound 1041] ({CH2CO}-[Dap]Y(Carboxymethyl)D[Phe(3-Me)]Y(Carboxymethyl)[Bip]Y(Carboxymethyl)[Orn][dL][Dab][Cha]VS(X1)C[Dab][AEEA]-NH2; thioether N-14), the pIC50 is 6.85.

`Cc1cccc(C[C@@H]2NC(=O)[C@H](CC(=O)O)NC(=O)[C@H](Cc3ccc(OCC(=O)O)cc3)NC(=O)[C@H](CN)NC(=O)CSC[C@@H](C(=O)N[C@@H](CCN)C(=O)NCCOCCOCC(N)=O)NC(=O)[C@H]([C@@H](C)O)NC(=O)[C@H](C(C)C)NC(=O)[C@H](CC3CCCCC3)NC(=O)[C@H](CCN)NC(=O)[C@@H](CC(C)C)NC(=O)[C@H](CCCN)NC(=O)[C@H](COCc3cn(CCOCCOCCOCCOCCOCCOCCOCCOCCOCCOCCOCCNC(=O)CC[C@H](NC(=O)CCCCCCCCCCCCCCCCC(=O)O)C(=O)O)nn3)NC(=O)[C@H](Cc3ccc(-c4ccccc4)cc3)NC(=O)[C@H](Cc3ccc(OCC(=O)O)cc3)NC2=O)c1` [Compound 1042] ({CH2CO}-[Dap]Y(Carboxymethyl)D[Phe(3-Me)]Y(Carboxymethyl)[Bip]S(X1)[Orn][dL][Dab][Cha]VTC[Dab][AEEA]-NH2; thioether N-14): the pIC50 was 6.66.

In the case of `Cc1cccc(C[C@@H]2NC(=O)[C@H](CC(=O)O)NC(=O)[C@H](Cc3ccc(OCC(=O)O)cc3)NC(=O)[C@H](CN)NC(=O)CSC[C@@H](C(=O)N[C@@H](CCN)C(=O)NCCOCCOCC(N)=O)NC(=O)[C@H]([C@@H](C)O)NC(=O)[C@H](C(C)C)NC(=O)[C@H](CC3CCCCC3)NC(=O)[C@H](CCN)NC(=O)[C@@H](CC(C)C)NC(=O)[C@H](COCc3cn(CCOCCOCCOCCOCCOCCOCCOCCOCCOCCOCCOCCNC(=O)CC[C@H](NC(=O)CCCCCCCCCCCCCCCCC(=O)O)C(=O)O)nn3)NC(=O)[C@H](Cc3ccc(OCC(=O)O)cc3)NC(=O)[C@H](Cc3ccc(-c4ccccc4)cc3)NC(=O)[C@H](Cc3ccc(OCC(=O)O)cc3)NC2=O)c1` [Compound 1043] ({CH2CO}-[Dap]Y(Carboxymethyl)D[Phe(3-Me)]Y(Carboxymethyl)[Bip]Y(Carboxymethyl)S(X1)[dL][Dab][Cha]VTC[Dab][AEEA]-NH2; thioether N-14), the pIC50 was 6.21.

Regarding `CC(C)C[C@H]1NC(=O)[C@H](C)N(C)C(=O)[C@H](C(C)C)NC(=O)[C@H](Cc2ccc(-c3ccccc3)cc2)NC(=O)[C@H](C(C)C)NC(=O)[C@H](Cc2c[nH]c3ccccc23)NC(=O)[C@H](CC(=O)O)NC(=O)[C@H](Cc2ccncc2)NC(=O)[C@H](Cc2ccc(OCC(=O)O)cc2)NC(=O)CSC[C@@H](C(N)=O)NC(=O)[C@H](CO)NC(=O)[C@H](C(C)C)NC(=O)[C@H](CC2CCCCC2)NC(=O)[C@H](CCCCNC(=O)CCCCCCCCCCC(=O)O)NC1=O` [Compound 1044] ({CH2CO}-Y(Carboxymethyl)[4Pal]DWV[Bip]V[NMeA][dL]K(C12 diacid)[Cha]VSC-NH2; thioether N-14), the pIC50 is 6.44.

With `CC(C)C[C@H]1NC(=O)[C@H](C)N(C)C(=O)[C@H](C(C)C)NC(=O)[C@H](Cc2ccc(-c3ccccc3)cc2)NC(=O)[C@H](C(C)C)NC(=O)[C@H](Cc2c[nH]c3ccccc23)NC(=O)[C@H](CC(=O)O)NC(=O)[C@H](Cc2ccncc2)NC(=O)[C@H](Cc2ccc(OCC(=O)O)cc2)NC(=O)CSC[C@@H](C(N)=O)NC(=O)[C@H](CCCCNC(=O)CCCCCCCCCCC(=O)O)NC(=O)[C@H](C(C)C)NC(=O)[C@H](CC2CCCCC2)NC(=O)[C@H](CC(N)=O)NC1=O` [Compound 1045] ({CH2CO}-Y(Carboxymethyl)[4Pal]DWV[Bip]V[NMeA][dL]N[Cha]VK(C12 diacid)C-NH2; thioether N-14), the negative logarithm of the IC50 (pIC50) is 6.74.
